In US10358436B2, “Kinase inhibitors and method of treating cancer” (University Health Network, priority 2010, dated 2019):
pIC50: −log10 of the molar value. Where two headings read alike, the source gives them in different places.

Tests used:
Assay type in all cases: biochemical
FLT3 = FLT3 (Homo sapiens (Human), UniProt P36888); experiment: Kinase selectivity assay (CEREP HTRF panel)
KDR kinase (VEGFR2) = KDR kinase (VEGFR2) (Homo sapiens (Human), UniProt P35968); experiment: Kinase selectivity assay (CEREP HTRF panel)
Chain of KDR kinase (VEGFR2) (P35968 20-1356): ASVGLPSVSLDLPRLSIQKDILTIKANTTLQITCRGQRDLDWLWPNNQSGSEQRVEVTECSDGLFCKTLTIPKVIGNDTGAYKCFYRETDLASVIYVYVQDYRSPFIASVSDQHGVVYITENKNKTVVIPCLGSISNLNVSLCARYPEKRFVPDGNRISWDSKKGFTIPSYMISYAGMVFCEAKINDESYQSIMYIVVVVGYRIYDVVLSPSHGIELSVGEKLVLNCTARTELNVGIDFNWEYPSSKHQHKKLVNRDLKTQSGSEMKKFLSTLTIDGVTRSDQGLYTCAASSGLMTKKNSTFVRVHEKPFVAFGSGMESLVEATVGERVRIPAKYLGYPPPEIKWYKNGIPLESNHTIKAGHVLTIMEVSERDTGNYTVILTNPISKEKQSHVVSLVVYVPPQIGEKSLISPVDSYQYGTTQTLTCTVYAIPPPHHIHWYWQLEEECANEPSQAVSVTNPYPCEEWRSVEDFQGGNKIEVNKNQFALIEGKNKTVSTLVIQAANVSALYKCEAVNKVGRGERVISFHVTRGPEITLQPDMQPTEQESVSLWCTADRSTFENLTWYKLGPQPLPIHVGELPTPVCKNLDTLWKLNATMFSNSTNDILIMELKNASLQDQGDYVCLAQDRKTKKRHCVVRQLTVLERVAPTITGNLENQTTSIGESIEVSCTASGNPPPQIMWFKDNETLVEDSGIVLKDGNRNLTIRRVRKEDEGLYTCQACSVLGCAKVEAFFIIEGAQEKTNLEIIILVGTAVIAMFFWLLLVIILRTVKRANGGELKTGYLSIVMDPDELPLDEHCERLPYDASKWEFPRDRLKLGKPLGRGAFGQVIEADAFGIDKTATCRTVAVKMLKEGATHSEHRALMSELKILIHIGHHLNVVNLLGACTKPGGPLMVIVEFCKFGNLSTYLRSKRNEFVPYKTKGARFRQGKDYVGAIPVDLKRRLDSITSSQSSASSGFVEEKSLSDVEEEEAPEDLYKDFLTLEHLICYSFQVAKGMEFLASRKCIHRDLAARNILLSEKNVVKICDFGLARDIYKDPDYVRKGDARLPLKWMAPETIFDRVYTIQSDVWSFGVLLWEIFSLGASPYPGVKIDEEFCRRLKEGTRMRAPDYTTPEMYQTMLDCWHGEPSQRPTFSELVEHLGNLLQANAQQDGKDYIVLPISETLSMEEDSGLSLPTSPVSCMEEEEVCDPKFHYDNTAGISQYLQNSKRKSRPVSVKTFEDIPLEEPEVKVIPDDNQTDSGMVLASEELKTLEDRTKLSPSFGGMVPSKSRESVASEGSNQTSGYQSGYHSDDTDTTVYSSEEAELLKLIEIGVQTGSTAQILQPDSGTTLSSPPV

Aurora A = Aurora A (Homo sapiens (Human), UniProt O14965); experiment: Aurora A inhibition assay (Z-Lyte)
Chain of Aurora A (O14965 whole entry): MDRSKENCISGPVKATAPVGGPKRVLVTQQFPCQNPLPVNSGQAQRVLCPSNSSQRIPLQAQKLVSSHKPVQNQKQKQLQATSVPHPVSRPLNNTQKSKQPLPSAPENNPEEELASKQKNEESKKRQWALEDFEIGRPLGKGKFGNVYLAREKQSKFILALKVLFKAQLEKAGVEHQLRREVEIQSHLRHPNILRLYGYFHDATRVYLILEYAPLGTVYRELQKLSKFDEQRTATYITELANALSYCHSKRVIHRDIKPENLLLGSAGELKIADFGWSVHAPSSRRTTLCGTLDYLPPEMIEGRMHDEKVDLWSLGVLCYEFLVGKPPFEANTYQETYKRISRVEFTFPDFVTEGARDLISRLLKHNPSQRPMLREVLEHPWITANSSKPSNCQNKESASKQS

human PLK4 = human PLK4 (Homo sapiens (Human), UniProt O00444); experiment: PLK4 inhibition assay (indirect ELISA)
Chain of human PLK4 (O00444 1-391): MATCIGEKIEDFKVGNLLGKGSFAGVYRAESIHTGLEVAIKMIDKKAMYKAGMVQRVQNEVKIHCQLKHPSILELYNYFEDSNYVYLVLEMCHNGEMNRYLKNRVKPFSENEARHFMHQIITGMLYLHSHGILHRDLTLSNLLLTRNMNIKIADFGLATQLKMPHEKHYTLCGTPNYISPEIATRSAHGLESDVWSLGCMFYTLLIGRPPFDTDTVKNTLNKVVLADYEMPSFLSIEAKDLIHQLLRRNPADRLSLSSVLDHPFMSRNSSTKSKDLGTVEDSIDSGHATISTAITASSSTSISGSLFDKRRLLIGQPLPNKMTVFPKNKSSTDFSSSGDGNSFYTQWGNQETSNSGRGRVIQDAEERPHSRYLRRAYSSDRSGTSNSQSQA

Aurora B = Aurora B (Homo sapiens (Human), UniProt Q96GD4); experiment: Aurora B inhibition assay (Z-Lyte)
Chain of Aurora B (Q96GD4 whole entry): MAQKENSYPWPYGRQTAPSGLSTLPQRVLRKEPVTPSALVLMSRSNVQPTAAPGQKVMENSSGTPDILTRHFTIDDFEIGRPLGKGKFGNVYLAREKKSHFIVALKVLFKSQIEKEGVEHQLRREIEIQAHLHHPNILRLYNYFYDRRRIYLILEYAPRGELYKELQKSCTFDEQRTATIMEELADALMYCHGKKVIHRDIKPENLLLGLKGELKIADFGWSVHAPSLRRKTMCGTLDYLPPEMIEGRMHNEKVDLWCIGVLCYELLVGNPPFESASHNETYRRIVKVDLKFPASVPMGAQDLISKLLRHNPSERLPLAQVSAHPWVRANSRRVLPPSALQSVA

Chain of FLT3 (P36888 27-993): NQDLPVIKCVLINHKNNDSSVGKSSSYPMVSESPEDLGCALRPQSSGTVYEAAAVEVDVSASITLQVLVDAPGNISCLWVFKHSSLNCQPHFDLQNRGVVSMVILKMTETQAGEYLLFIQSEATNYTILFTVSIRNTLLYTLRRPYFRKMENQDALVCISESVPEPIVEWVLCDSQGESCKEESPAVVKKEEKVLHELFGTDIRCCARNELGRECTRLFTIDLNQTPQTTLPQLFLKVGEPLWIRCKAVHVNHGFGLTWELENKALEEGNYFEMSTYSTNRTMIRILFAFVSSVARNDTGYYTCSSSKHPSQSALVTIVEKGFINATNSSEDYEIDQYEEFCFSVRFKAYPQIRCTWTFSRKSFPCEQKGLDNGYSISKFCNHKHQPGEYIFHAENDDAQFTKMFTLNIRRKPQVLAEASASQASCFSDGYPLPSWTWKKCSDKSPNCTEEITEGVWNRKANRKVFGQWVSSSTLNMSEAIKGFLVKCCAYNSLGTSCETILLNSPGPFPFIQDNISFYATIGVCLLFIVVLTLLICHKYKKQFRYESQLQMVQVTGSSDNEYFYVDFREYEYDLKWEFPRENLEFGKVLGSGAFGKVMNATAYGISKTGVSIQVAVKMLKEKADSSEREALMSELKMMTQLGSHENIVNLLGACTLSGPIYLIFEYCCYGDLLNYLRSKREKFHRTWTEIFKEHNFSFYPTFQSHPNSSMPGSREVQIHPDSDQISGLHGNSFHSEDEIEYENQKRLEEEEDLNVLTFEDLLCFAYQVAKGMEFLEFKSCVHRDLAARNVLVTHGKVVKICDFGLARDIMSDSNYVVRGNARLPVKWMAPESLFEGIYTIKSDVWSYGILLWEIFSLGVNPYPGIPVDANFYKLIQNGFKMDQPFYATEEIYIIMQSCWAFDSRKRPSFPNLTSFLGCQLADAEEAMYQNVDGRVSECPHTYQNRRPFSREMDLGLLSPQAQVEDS

Row | SMILES | inhibition at 10 µM (FLT3) [%] | inhibition at 10 µM (KDR kinase (VEGFR2)) [%] | inhibition at 1 µM (Aurora A) [%] | pIC50 (human PLK4; read-out: PLK4 IC50 Ranges) | pIC50 (Aurora B; read-out: Aurora B IC50 Ranges) | pIC50 (human PLK4) | pIC50 (Aurora B)
1 | CN1C(=O)[C@@]2(C[C@H]2c2ccc3c(/C=C/c4ccc(N5CCNCC5)cc4)n[nH]c3c2)c2ccccc21 (relative stereo) [Example A89, (1R*,2S*)-(E)-1′-methyl-2-(3-(4-(piperazin-1-yl)styryl)-1H-indazol-6-yl)spiro[cyclopropane-1,3′-indolin]-2′-one 2,2,2-trifluoroacetate] |  |  | > 50 |  |  | > 7.00 | > 7.00
2 | O=C1Nc2ccccc2[C@]12C[C@H]2c1ccc2c(/C=C/c3ccc(N4CCNCC4)cc3)n[nH]c2c1 (relative stereo) [Example A91, (1R*,2S*)-(E)-2-(3-(4-(piperazin-1-yl)styryl)-1H-indazol-6-yl)spiro[cyclopropane-1,3′-indolin]-2′-one 2,2,2-trifluoroacetate] |  |  | > 50 |  | > 7.00 | > 7.00 | 
3 | CN1CCN(c2ccc(-c3n[nH]c4cc([C@@H]5C[C@@]56C(=O)N(C)c5ccccc56)ccc34)cn2)CC1 (relative stereo) [Example A93, (1R*,2S*)-1′-methyl-2-(3-(6-(4-methylpiperazin-1-yl)pyridin-3-yl)-1H-indazol-6-yl)spiro[cyclopropane-1,3′-indolin]-2′-one bis(2,2,2-trifluoroacetate)] |  |  | > 50 | > 7.00 | > 7.00 |  | 
4 | CCN1CCN(c2ccc(-c3n[nH]c4cc([C@@H]5C[C@@]56C(=O)Nc5ccc(OC)cc56)ccc34)cc2)CC1 (relative stereo) [Example A98, (1R*,2S*)-2-(3-(4-(4-ethylpiperazin-1-yl)phenyl)-1H-indazol-6-yl)-5′-methoxyspiro[cyclopropane-1,3′-indolin]-2′-one 2,2,2-trifluoroacetate] |  |  | < 50 |  | > 7.00 | > 7.00 | 
5 | COc1ccc2c(c1)[C@]1(C[C@H]1c1ccc3c(-c4ccc(OCCN(C)C)cc4)n[nH]c3c1)C(=O)N2 (relative stereo) [Example A103, (1R*,2S*)-2-(3-(4-(2-(dimethylamino)ethoxy)phenyl)-1H-indazol-6-yl)-5′-methoxyspiro[cyclopropane-1,3′-indolin]-2′-one 2,2,2-trifluoroacetate] |  |  | < 50 | > 7.00 | > 7.00 |  | 
6 | COc1ccc2c(c1)[C@]1(C[C@H]1c1ccc3c(/C=C/c4ccc(N5CCNCC5)nc4)n[nH]c3c1)C(=O)N2 (relative stereo) [Example A163, (1R*,2S*)-5′-methoxy-2-(3-((E)-2-(6-(piperazin-1-yl)pyridin-3-yl)vinyl)-1H-indazol-6-yl)spiro[cyclopropane-1,3′-indolin]-2′-one 2,2,2-trifluoroacetate] |  |  | > 50 | > 7.00 | > 7.00 |  | 
7 | CN(C)Cc1cccc(/C=C/c2n[nH]c3cc([C@@H]4C[C@@]45C(=O)N(CC(N)=O)c4ccccc45)ccc23)c1 (relative stereo) [Example A164, 2-((1R*,2S*)-(E)-2-(3-(3-((dimethylamino)methyl)styryl)-1H-indazol-6-yl)-2′-oxospiro[cyclopropane-1,3′-indoline]-1′-yl)acetamide 2,2,2-trifluoroacetate] |  |  | > 50 | > 7.00 | > 7.00 |  | 

More lines, main results first:

Row | inhibition at 10 µM (FLT3) [%] | inhibition at 10 µM (KDR kinase (VEGFR2)) [%] | inhibition at 1 µM (Aurora A) [%] | pIC50 (human PLK4; read-out: PLK4 IC50 Ranges) | pIC50 (Aurora B; read-out: Aurora B IC50 Ranges) | SMILES | pIC50 (human PLK4) | pIC50 (Aurora B)
8 | 102 | 58 |  |  |  | CN(C)Cc1ccc(/C=C/c2n[nH]c3cc([C@H]4C[C@@]45C(=O)Nc4ccccc45)ccc23)cc1 (relative stereo) [Example A26, (1R*,2R*)-(E)-2-(3-(4-((dimethylamino)methyl)styryl)-1H-indazol-6-yl)spiro[cyclopropane-1,3′-indolin]-2′-one 2,2,2-trifluoroacetate] |  | 
9 |  |  | < 50 | > 7.00 | > 7.00 | COc1ccc2c(c1)[C@]1(C[C@H]1c1ccc3c(-c4ccnc(N5CCN(C)CC5)c4)n[nH]c3c1)C(=O)N2 (relative stereo) [Example A37, (1R*,2S*)-5′-Methoxy-2-(3-(2-(4-methylpiperazin-1-yl)pyridin-4-yl)-1H-indazol-6-yl)spiro[cyclopropane-1,3′-indolin]-2′-one] |  | 
10 |  |  | < 50 |  | > 7.00 | COc1ccc2c(c1)[C@]1(C[C@H]1c1ccc3c(-c4ccc(N5CCN(C)CC5)cc4)n[nH]c3c1)C(=O)N2 (relative stereo) [Example A38, (1R*,2S*)-5′-Methoxy-2-(3-(4-(4-methylpiperazin-1-yl)phenyl)-1H-indazol-6-yl)spiro[cyclopropane-1,3′-indolin]-2′-one] | > 7.00 | 
11 |  |  | < 50 | > 7.00 | > 7.00 | COc1ccc2c(c1)[C@]1(C[C@H]1c1ccc3c(-c4cccc(CO)c4)n[nH]c3c1)C(=O)N2 (relative stereo) [Example A43, (1R*,2S*)-2-(3-(3-(hydroxymethyl)phenyl)-1H-indazol-6-yl)-5′-methoxy spiro[cyclopropane-1,3′-indolin]-2′-one 2,2,2-trifluoroacetate] |  | 
12 |  |  | > 50 | > 7.00 | 6.00 to 7.00 | CN1CCN(c2ccc(-c3n[nH]c4cc([C@@H]5C[C@@]56C(=O)Nc5ccc(N)cc56)ccc34)cc2)CC1 (relative stereo) [Example A86, (1R*,2S*)-5′-amino-2-(3-(4-(4-methylpiperazin-1-yl)phenyl)-1H-indazol-6-yl)spiro[cyclopropane-1,3′-indolin]-2′-one] |  | 
13 |  |  | < 50 | > 7.00 | > 7.00 | COc1ccc2c(c1)[C@]1(C[C@H]1c1ccc3c(-c4ccc(N5CCN(C)CC5)cc4)n[nH]c3c1)C(=O)N2C (relative stereo) [Example A100, (1R*,2S*)-5′-methoxy-1′-methyl-2-(3-(4-(4-methylpiperazin-1-yl)phenyl)-1H-indazol-6-yl)spiro[cyclopropane-1,3′-indolin]-2′-one 2,2,2-trifluoroacetate] |  | 
14 |  |  | < 50 | > 7.00 | > 7.00 | COc1ccc2c(c1)[C@]1(C[C@H]1c1ccc3c(-c4ccc(N5CCN(C)CC5)nc4)n[nH]c3c1)C(=O)N2C (relative stereo) [Example A104, (1R*,2S*)-5′-methoxy-1′-methyl-2-(3-(6-(4-methylpiperazin-1-yl)pyridin-3-yl)-1H-indazol-6-yl)spiro[cyclopropane-1,3′-indolin]-2′-one bis(2,2,2-trifluoroacetate)] |  | 
15 |  |  | > 50 | > 7.00 | > 7.00 | Cc1cc(/C=C/c2n[nH]c3cc([C@@H]4C[C@@]45C(=O)Nc4ccccc45)ccc23)ccn1 (relative stereo) [Example A161, (1R*,2S*)-2-(3-((E)-2-(2-methylpyridin-4-yl)vinyl)-1H-indazol-6-yl)spiro[cyclopropane-1,3′-indolin]-2′-one] |  | 
